According to US8765809B2, “Ester derivative and use thereof” (Ajinomoto Co., Inc., priority 2006, dated 2014):

System: auricle of hairless mouse
Assay: Measurement of external blood circulation enhancing action: vasodilatory effect (red spots) after application to the ear
Type: in vivo, hairless mouse (HR-1, female)
Set-up: key to Vasodilatory effect for hairless mouse (red spots) / Vasodilatory effect on hairless mouse (red spots): O: clear red spots is confirmed; Δ: weak red spots is confirmed; x: no development of red spots
Details: for Vasodilatory effect on hairless mouse (red spots) / red spots observed (note, words) / red spots almost disappeared at / weak red spots were observed at, time after application / red spots were observed at, time after application / red spots at 1 hr after application: 5 wt % (ethanol); for vasodilatory / blood circulation enhancing effect, summary in words: summary of Tables 2 to 4; for red spots at 1 hr after application: 1 hr later
Source text: The compound of each Example, capsinoid derivative and capsaicin were compared for vasodilatory effect using auricle of hairless mouse. A sample was applied to the right ear of hairless mouse (HR-1, female), and a control was applied to the left ear. […]

[1] = 5 wt % (liquid paraffin) as printed, second column of Table 2
[2] = 5 wt % (liquid paraffin), first column of Table 2
[3] = application of 5 wt % in liquid paraffin

Row | SMILES | Vasodilatory effect on hairless mouse (red spots) | Vasodilatory effect for hairless mouse (red spots) [1] | Vasodilatory effect for hairless mouse (red spots) [2] | red spots disappeared in [3] | vasodilatory / blood circulation enhancing effect, summary in words | further results
1 | COc1cc(CNC(=O)CCCC/C=C/C(C)C)ccc1O [capsaicin, reference compound] | ∘ | ∘ | ∘ | – | – | Vasodilatory effect for hairless mouse (red spots) (0.005 wt % (ethanol)): Δ; Vasodilatory effect for hairless mouse (red spots) (0.05 wt % (ethanol)): ∘; Vasodilatory effect for hairless mouse (red spots) (0.5 wt % (ethanol)): ∘; red spots observed (note, words): Strong red spots were observed.; red spots were observed even after lapse of (application of 1 wt % in liquid paraffin): lapse of 2 hr
2 | COc1cc(COC(=O)CCCC/C=C/C(C)C)ccc1O [capsiate, 4-hydroxy-3-methoxybenzyl (E)-8-methyl-6-nonenoate, reference compound] | ∘ | Δ | ∘ | – | – | red spots observed (note, words): Clear red spots were observed.; weak red spots were observed even after lapse of [3]: lapse of 90 min
3 | COc1cc(CCCOC(=O)CCCCCCC(C)C)ccc1O [compound J, 3-(3-methoxy-4-hydroxyphenyl)propyl 8-methylnonanoate] | x | – | x | – | – | blood circulation enhancing effect (note, words) [3]: Application of 5 wt %: no blood
4 | COc1cc(CCCOC(=O)CCCCCC(C)C)ccc1O [compound J-1, 3-(3-methoxy-4-hydroxyphenyl)propyl 7-methyloctanoate] | ∘ | x | Δ | spots disappeared in 1 hr | weak blood circulation enhancing effect | red spots almost disappeared at: almost disappeared at 30 min later.; weak red spots were observed at, time after application: Weak red spots were observed at 10 min
5 | COc1cc(CCCOC(=O)CCCCC(C)C)ccc1O [compound J-2, 3-(3-methoxy-4-hydroxyphenyl)propyl 6-methylheptanoate] | ∘ | x | Δ | spots disappeared in 1 hr | weak blood circulation enhancing effect | red spots almost disappeared at: almost disappeared at 30 min later.; weak red spots were observed at, time after application: Weak red spots were observed at 10 min
6 | COc1cc(CCCOC(=O)CCCC(C)C)ccc1O [compound J-3, 3-(3-methoxy-4-hydroxyphenyl)propyl 5-methylhexanoate] | ∘ | x | Δ | spots disappeared in 1 hr | weak blood circulation enhancing effect | red spots almost disappeared at: almost disappeared at 30 min later.; weak red spots were observed at, time after application: Weak red spots were observed at 10 min
7 | COc1cc(CCCOC(=O)CCC(C)C)ccc1O [compound J-4, 3-(3-methoxy-4-hydroxyphenyl)propyl 4-methylpentanoate] | ∘ | x | Δ | spots disappeared in 1 hr | weak blood circulation enhancing effect | red spots almost disappeared at: almost disappeared at 30 min later.; weak red spots were observed at, time after application: Weak red spots were observed at 10 min
8 | CCCCCC(=O)OCCCc1ccc(O)c(OC)c1 [compound J-5, 3-(3-methoxy-4-hydroxyphenyl)propyl n-hexanoate] | Δ | x | Δ | spots disappeared in 1 hr | weak blood circulation enhancing effect | red spots almost disappeared at: almost disappeared at 30 min later.; weak red spots were observed at, time after application: Weak red spots were observed at 10 min
9 | COc1cc(CC(=O)OCCCCCCCC(C)C)ccc1O [compound K, 8-methylnonyl homovanillate] | – | – | ∘ | – | potent vasodilatory effect | weak red spots were observed even after lapse of [3]: lapse of 2 hr
10 | COc1cc(CC(=O)OCCCCCCC(C)C)ccc1O [compound K-1, 7-methyloctyl homovanillate] | – | ∘ | ∘ | – | potent vasodilatory effect | Vasodilatory effect for hairless mouse (red spots) (0.005 wt % (ethanol)): Δ; Vasodilatory effect for hairless mouse (red spots) (0.05 wt % (ethanol)): ∘; Vasodilatory effect for hairless mouse (red spots) (0.5 wt % (ethanol)): ∘; red spots were observed even after lapse of [3]: lapse of 90 min
11 | CC[C@H](C)CCCCCOC(=O)Cc1ccc(O)c(OC)c1 [compound K-2, (S)-(+)-6-methyloctyl homovanillate] | – | ∘ | ∘ | – | potent vasodilatory effect | Vasodilatory effect for hairless mouse (red spots) (0.005 wt % (ethanol)): Δ; Vasodilatory effect for hairless mouse (red spots) (0.05 wt % (ethanol)): ∘; Vasodilatory effect for hairless mouse (red spots) (0.5 wt % (ethanol)): ∘; red spots were observed even after lapse of [3]: lapse of 90 min
12 | COc1cc(CC(=O)OCCCCCC(C)C)ccc1O [compound K-3, 6-methylheptyl homovanillate] | – | ∘ | ∘ | – | potent vasodilatory effect | Vasodilatory effect for hairless mouse (red spots) (0.005 wt % (ethanol)): Δ; Vasodilatory effect for hairless mouse (red spots) (0.05 wt % (ethanol)): ∘; Vasodilatory effect for hairless mouse (red spots) (0.5 wt % (ethanol)): ∘; red spots were observed even after lapse of [3]: lapse of 90 min
13 | COc1cc(CCC(=O)OCCCCCCCC(C)C)ccc1O [compound L, 8-methylnonyl 3-(4-hydroxy-3-methoxyphenyl)propionate] | – | – | ∘ | – | potent vasodilatory effect | red spots were observed even after lapse of [3]: lapse of 90 min
14 | COc1cc(CCC(=O)OCCCCCCC(C)C)ccc1O [compound L-1, 7-methyloctyl 3-(4-hydroxy-3-methoxyphenyl)propionate] | ∘ | Δ | ∘ | spots disappeared in 1 hr | potent vasodilatory effect | red spots were observed at, time after application: Red spots were observed at 5 min; red spots at 1 hr after application: thin red spots remained. L-4 showed
15 | COc1cc(CCC(=O)OCCCCCC(C)C)ccc1O [compound L-2, 6-methylheptyl 3-(4-hydroxy-3-methoxyphenyl)propionate] | ∘ | Δ | ∘ | spots disappeared in 1 hr | potent vasodilatory effect | red spots were observed at, time after application: Red spots were observed at 5 min; red spots at 1 hr after application: thin red spots remained. L-4 showed
16 | COc1cc(CCC(=O)OCCCCC(C)C)ccc1O [compound L-3, 5-methylhexyl 3-(4-hydroxy-3-methoxyphenyl)propionate] | ∘ | Δ | ∘ | spots disappeared in 1 hr | potent vasodilatory effect | red spots were observed at, time after application: Red spots were observed at 5 min; red spots at 1 hr after application: thin red spots remained. L-4 showed
17 | CC[C@H](C)CCCCCOC(=O)CCc1ccc(O)c(OC)c1 [compound L-4, (S)-(+)-6-methyloctyl 3-(4-hydroxy-3-methoxyphenyl)propionate] | ∘ | ∘ | ∘ | – | potent vasodilatory effect | red spots were observed at, time after application: Red spots were observed at 5 min; red spots at 1 hr after application: strong red spots after 1 hr.; weak red spots were observed even after lapse of [3]: lapse of 1 hr
18 | COc1cc(/C=C/C(=O)OCCCCCCCC(C)C)ccc1O [compound Q-1, 8-methylnonyl ferulate] | x | – | x | – | – | blood circulation enhancing effect (note, words) [3]: Application of 5 wt %: no blood
19 | COc1cc(/C=C/C(=O)OCCCCCCC(C)C)ccc1O [compound Q-2, 7-methyloctyl ferulate] | x | – | x | – | – | blood circulation enhancing effect (note, words) [3]: Application of 5 wt %: no blood
20 | COc1cc(/C=C/C(=O)OCCCCCC(C)C)ccc1O [compound Q-3, 6-methylheptyl ferulate] | x | – | x | – | – | blood circulation enhancing effect (note, words) [3]: Application of 5 wt %: no blood
21 | COc1cc(COC(=O)CCCCCCC(C)C)ccc1O [dihydrocapsiate, 4-hydroxy-3-methoxybenzyl 8-methylnonanoate, reference compound] | – | Δ | ∘ | – | – | weak red spots were observed even after lapse of [3]: lapse of 90 min
22 | COc1cc(COC(=O)CCCCCC(C)C)ccc1O [nordihydrocapsiate, 4-hydroxy-3-methoxybenzyl 7-methyl-octanoate, reference compound] | – | Δ | ∘ | – | – | weak red spots were observed even after lapse of [3]: lapse of 90 min
